2 substances from US20250324966A1, “ADDITIVE FOR PRESERVING CELLS, TISSUE AND/OR FOOD” (Proteimax Bio Technology Israel LTD, priority 2021, published 2025) can be followed below.

Test [1] deals with fresh strawberries. Description: Preservation of strawberries against fungal contamination, single topical application. The settings on record: 100 μM peptide in water. How it is done: (§1) The peptide of SEQ ID NO: 3, which comprises pep5 (SEQ ID NO: 1) and the cell-penetrating peptide (SEQ ID NO: 2), was prepared in a 100 μM solution in water, for direct topical use on the food to be preserved.
The peptide of SEQ ID NO: 15, which comprises the peptide of SEQ ID NO: 9 and the cell penetrating peptide of SEQ ID NO: 2, was prepared in a 100 μM solution in water, for use in the food or plant to be preserved.
The additive prepared according to example 1 was used in experiments for food preservation by single topical application.
The results of groups of 10 strawberries in each condition (test and control) at 0, 12, 24, 36, 48 and 60 h, respectively in A, B, C, D, E and F are shown.

Test [2] has as its system fresh strawberries. Description: Preservation of strawberries against rot at 4° C. The following applies: 100 μM peptide in water, kept at 4° C., 5 days; intense rot visible in untreated group; FIG. 3 D. How it is done: as §1
A new experiment with strawberries, now with the test and control groups being kept at a temperature of 4° C.
Representative results of strawberries in each condition (test and control) at 0 h, 24 h, 48 h and 5 days, respectively in A, B, C and D are shown.

Test [3] concerns bean seeds. Description: Modulation of the germination rate of bean seeds. Set-up: species or system black bean. The following applies: single dose 100 μM in water, moist cotton, vs water. How it is done:
To evaluate the effects of the additive of the invention in the modulation of cell division or multiplication in plants, particularly in the modulation of seed germination and/or plant development, an experiment aimed at observing the germination of bean seeds and the subsequent development of seedlings was conducted. Groups of groups of 14 black bean seeds were placed in moist cotton, each group in one condition: control, with application of water; and test, with application of the additive of the invention as described below. The state of the seeds was observed and documented at times 0, 3 and 4, and the pattern and profile of germination of the beans were analyzed.
The results of germination of groups of 14 seeds in moist cotton in each condition (control and test) in 0, 3 and 4 days, respectively in A, B and C are shown.

Test [4] concerns roses. Description: Preservation of post-harvest flowers (roses), stems submerged in additive. Also noted: species or system Rosa. The following applies: single dose 100 μM in water, room temperature (28° C.), 0, 3 and 6 days, vs H2O, FIG. 6. Here is the method:
(§2) In this context, as an experimental model to evaluate the preservation of flowers or inflorescences, two different types of flowers and their degradation/preservation profile were evaluated through incubation with water or with a solution of the preservation additive of the invention, keeping the flowers in room temperature for a few days.
(§3) The chosen flowers were the rose (Rose-red) and the Gerbera (Gerbera). Species of the genus Rosa are among the most ornamental flowers cultivated in the world. Species of the genus Gerbera are used as an experimental organism in studies of flowering and flower meristematic development, and because they contain natural coumarin derivatives, they are flowers of phytochemical interest and biological control.
(§4) In this embodiment, the peptide of SEQ ID NO: 15, which comprises the peptide of SEQ ID NO: 9 and the peptide of SEQ ID NO: 2, was used.
(§5) Four flowers were used in each container, the stems being kept submerged with at least 5 cm of the respective liquid during the test period. Aluminum foil was used around the container where the stems were submerged, to protect from the incidence of light. Photographic results of flowers kept in each condition (control and test) at 0, 3 and 6 days are shown. […]

For test [5], the system named is Gerberas. Description: Preservation of post-harvest flowers (Gerberas), stems submerged in additive. Also noted: species or system Gerbera. The following applies: single dose 100 μM in water, room temperature (28° C.), 0, 3 and 6 days, vs H2O, FIG. 6. How it is done:
as §2, §3, §4, §5

For “SEQ ID NO: 3: peptide containing the peptide of SEQ ID NO: 1 (WELVVLGKL) and the cell-penetrating peptide of SEQ ID NO: 2 (YGRKKRRQRRR) in the C-terminal region (WELVVLGKLYGRKKRRQRRR)”, the “fruit preservation (visual results, percentage of spoiled fruits)” value in test [1] (single application, 0-60 h, vs water control, FIGS. 1 and 2) is given as “great potential for fruit preservation”. In addition, in test [1] (single topical application, FIG. 1 D and E (36 and 48 h), visible in water control), the “presence of a fungus with white hyphae on strawberries” value was “not detectable”. In test [2], the “presence of intense rot in strawberries” value was “not detectable”. In test [3] (room temperature (28° C.), 0, 3 and 4 days, FIGS. 4 and 5), the “seed germination process (number of bean seeds germinated)” value was “delay in the seed germination process”. Also, the “metabolic state of the shoots or seedlings” value in test [3] (room temperature (28° C.)) is “substantial modulation”.

“SEQ ID NO: 15: peptide containing the peptide of SEQ ID NO: 9 and the cell-penetrating peptide of SEQ ID NO: 2 (WELVVLYGRKKRRQRRR)”: the “preservation of flowers (roses), visual” value in test [4] is “effective preservation”. The “preservation of flowers (Gerberas), visual” value in test [5] is “effective preservation”.
